In publication PMC3006138, “Fexinidazole – A New Oral Nitroimidazole Drug Candidate Entering Clinical Development for the Treatment of Sleeping Sickness” (PLoS Neglected Tropical Diseases, 2010):
Read-outs that look alike come from different tables or passages of the source.

What was measured:
[1] = tested on: human hepatocytes (pooled); experiment: Hepatocyte intrinsic clearance and metabolite profile; type: in vitro ADME; settings: for % of total drug related material: fexinidazole 10 µM
Method: Fexinidazole was incubated with cryopreserved hepatocytes from male CD-1 mice, male Sprague Dawley rats, male beagle dogs, male cynomolgus monkeys, and from pooled white or African-American human donor samples (purchased commercially), at concentrations of 1 µM and 10 µM. […] The incubated samples were analyzed by LC-MS after extraction into acetonitrile.
A quality control analysis of fexinidazole was performed via 1H-NMR in DMSO and LC- […]
provided by the Swiss Tropical Institute (Basel, Switzerland).
Reagents and solvents were of analytical grade and obtained from Sigma-Aldrich (St. Louis, […]
Cryopreserved hepatocytes from the male CD1 mouse, lot CSI; male Sprague Dawley rat, lot LPL; male beagle dog, lot BWX; male cynomolgus monkey, lot EHH; and pooled human samples, lot MJI, were purchased from In Vitro Technologies Inc (Baltimore, Maryland, […]
5.4. In vitro Incubations
On the day of the experiment a 10 mM stock solution of fexinidazole in DMSO was prepared and, within 3 hours, aliquots of this freshly prepared solution, after suitable dilution, were added to the incubation matrix, to reach fexinidazole final concentrations of 1 and 10 µM. The final percentage of DMSO was 0.01% in the incubation samples for the […]
On the day of experiment, the cryopreserved hepatocytes were thawed following the detailed instructions provided by the supplier.
The number of viable cells was determined using a Trypan Blue exclusion method.
5.4.1. Intrinsic Clearance Study […]
µM with mouse, rat, dog, monkey and human hepatocytes (300000 cells/mL for the mouse and 1 million cells/mL for the other species) in a final incubation volume of 0.75 mL […]
Incubations were performed in duplicate in a 48-well plate under shaking. Sampling was performed using an automatic liquid handling system (Multiprobe II EX, Packard). At 0, 1, 5, 10, 15, 20, 30, 60 and 120 minutes, 50 µL aliquots of the incubates were taken, then 80 µL of ice-cold acetonitrile and 20 µL of 1 µM warfarin in acetonitrile (internal standard) were added, and samples centrifuged at 2000 rpm for 20 min. The supernatant was analyzed by LC-MS/MS. […]
the medium alone at t = 0 and 120 minutes.
For the determination of phase I and phase II activity of hepatocytes, 7-ethoxycoumarin (7-EC) 1 µM, and 7-hydroxycoumarin (7-HC) 30 µM were used as positive controls and incubated under the same conditions as fexinidazole. Aliquots of incubates were taken at 0, 10, 20, 30, 60 and 120 minutes and processed as fexinidazole samples.
5.4.2. Metabolite Profile Study
For metabolite profiling, fexinidazole was incubated at a concentration of 10 µM with mouse, rat, dog, monkey and human hepatocytes (300000 cells/mL for the mouse and 1 million cells/mL for the other species) in a final incubation volume of 2 mL Leibovitz L-15 […]
Aliquots of the incubation samples were taken at t = 0, 30 and 120 minutes; the metabolism was stopped by the addition of an equal volume of cold acetonitrile and the samples centrifuged at 1500 rpm for 20 min. The supernatant was stored at -20°C until analysis. Control incubations were performed with the compound in the medium alone […]
5.5. Analysis of Samples for Intrinsic Clearance Determination
The analysis of the samples for intrinsic clearance determination was performed by an LC-MS/MS method, using the following conditions:
HPLC Equipment and Conditions
HPLC system Agilent 1100 binary pump (Agilent, Palo Alto, USA)
Autosampler CTC Pal (Alfatech, San Jose, USA)
Analytical column Guard Column SB-C8 4.6 x 12.5 mm, 5 µm (Zorbax)
Column temperature ambient
Mobile phase A 10 mM ammonium formate pH 4.0: acetonitrile (95:5, v:v)
Mobile phase B 10 mM ammonium formate pH 4.0: acetonitrile (5:95, v:v) […]
Gradient conditions Step Total time (min) flow (µL/min) %A % B […]
MS Equipment and Conditions
Mass spectrometer API 4000 Triple Quadrupole (MDS-Sciex, Toronto, […]
Source Turbo Ion Spray (TIS)
Ion mode Positive for fexinidazole and 7-EC.
Negative for 7-HC, 7-HC sulphate and 7-HC glucuronide.

Lipophilicity (logD) = type: physicochemical; settings: pH 7.4
[2] = Mouse brain concentrations; type: in vivo; settings: for concentration at 5 min / concentration at 15 min / concentration at 30 min / concentration at 60 min / Kp at 5 min / Kp at 15 min / Kp at 30 min / Kp at 60 min: female, NMRI, mouse; for Kp at 5 min / Kp at 15 min / Kp at 30 min / Kp at 60 min: read-out: Mean plasma:brain ratio (plasma = 1.00)
Method: Following sacrifice, the cranium of mice was opened and the brain removed. Excess blood was washed from the brain with distilled water and any excess fluid blotted on absorbent paper. The brain was then snap frozen using liquid nitrogen and placed into a suitably labelled container and stored at approximately −70°C, pending analysis. Brains were homogenized and extracted samples were prepared appropriately for analysis via liquid chromatography-mass spectrometry (LC-MS).
BioDynamics Study No: DND/01
Two groups of female mice were dosed as follows:
Number Treatment Dose (mg/kg) Route
All doses are expressed as free base
Intravenous doses were administered into a lateral tail vein using an appropriately sized syringe and 25G needle and the oral formulation by oral gavage using a polypropylene gavage tube. All doses were given as a single bolus dose at a constant dose volume of 10.0 mL/kg.
1.6 Blood sample collection
At each sampling time point, three animals in each treatment group were deeply anaesthetised using isoflurane and blood samples (approximately 1 mL) taken into individual heparinised tubes by cardiac puncture, following which the animals were killed by cervical fracture. Samples were collected at the following times post-dose:
Following collection, the blood samples were centrifuged (approximately 10000 g, 2 min at 4 °C) and the plasma retained as one aliquot at approximately -70°C prior to analysis of test material concentrations at BioDynamics by LC-MS/MS.
1.7 Collection of terminal brain samples
Following collection of the terminal blood sample the cranium of each mouse was carefully opened and the brain removed. Excess blood was washed from the brain with distilled water and any excess fluid blotted on absorbent paper. The brain was then snap frozen using liquid nitrogen and placed into a suitably labelled container and stored frozen at approximately -70°C pending analysis.
All of the plasma samples together with the brains from the 15 minute time point were analysed for concentrations of the test material and its sulfone and sulfoxide metabolites. In addition the brains from the 5 and 30 minute time points for the intravenously treated and the 30 and 60 minute time points for the orally treated animals were analysed for concentrations of Fexinidazole and its sulfone and sulfoxide metabolites using an LC-MS/MS method developed at BioDynamics.
All samples were treated as temperature sensitive. Blood samples were collected onto wet ice, followed by centrifugation at 4 °C. Plasma and brain samples were snap frozen on dry ice (plasma) or liquid nitrogen (brains) prior to long term storage at less than -70 °C pending analysis.

[3] = brain homogenate, intravenous, 1 mg/kg, fexinidazole 1 mg/kg iv, 5 min, read-out: Brain homogenate concentration
[4] = brain homogenate, intravenous, 1 mg/kg, fexinidazole 1 mg/kg iv, 30 min, read-out: Brain homogenate concentration
[5] = brain homogenate, oral, 25 mg/kg, fexinidazole 25 mg/kg po, 60 min, read-out: Brain homogenate concentration
[6] = brain, intravenous, 1 mg/kg, fexinidazole 1 mg/kg iv, 5 min, read-out: Brain concentration
[7] = brain, intravenous, 1 mg/kg, fexinidazole 1 mg/kg iv, 30 min, read-out: Brain concentration
[8] = brain, oral, 25 mg/kg, fexinidazole 25 mg/kg po, 30 min, read-out: Brain concentration
[9] = brain, oral, 25 mg/kg, fexinidazole 25 mg/kg po, 30 min, read-out: Brain homogenate concentration
[10] = brain, oral, 25 mg/kg, fexinidazole 25 mg/kg po, 60 min, read-out: Brain concentration
[11] = fexinidazole 25 mg/kg po, 30 min
[12] = fexinidazole 25 mg/kg po, 60 min

## CSc1ccc(OCc2ncc([N+](=O)[O-])n2C)cc1 [Fexinidazole, 1-methyl-2-((p-(methylthio)phenoxy)methyl)-5-nitroimidazole]
[1]; 1 µM
  t1/2: 13.4 min
[1]; 30 min
  % of total drug related material: 2%
[1]; 120 min
  % of total drug related material: < 1%
[1]; t=0
  % of total drug related material: 83%
Lipophilicity (logD)
  logD: 2.83
[2]; [3]
  concentration at 5 min: 92.5 ng/mL
[2]; brain homogenate, intravenous, 1 mg/kg, fexinidazole 1 mg/kg iv, 15 min, read-out: Brain homogenate concentration
  concentration at 15 min: 21.3 ng/mL
[2]; [4]
  concentration at 30 min: 12.1 ng/mL
[2]; brain homogenate, oral, 25 mg/kg, fexinidazole 25 mg/kg po, 15 min, read-out: Brain homogenate concentration
  concentration at 15 min: 379 ng/mL
[2]; [5]
  concentration at 60 min: 254 ng/mL
[2]; [6]
  concentration at 5 min: 277 ng/g
[2]; brain, intravenous, 1 mg/kg, fexinidazole 1 mg/kg iv, 15 min, read-out: Brain concentration
  concentration at 15 min: 63.8 ng/g
[2]; [7]
  concentration at 30 min: 36.2 ng/g
[2]; brain, oral, 25 mg/kg, fexinidazole 25 mg/kg po, 15 min, read-out: Brain concentration
  concentration at 15 min: 1140 ng/g
[2]; [8]
  concentration at 30 min: 800 ng/g
[2]; [9]
  concentration at 30 min: 266 ng/mL
[2]; [10]
  concentration at 60 min: 763 ng/g
[2]; brain, iv 1 mg/kg, 5 min
  Kp at 5 min: 0.56
[2]; brain, iv 1 mg/kg, 15 min
  Kp at 15 min: 0.76
[2]; brain, iv 1 mg/kg, 30 min
  Kp at 30 min: 1.03
[2]; brain, po 25 mg/kg, 15 min
  Kp at 15 min: 0.76
[2]; brain, po 25 mg/kg, 30 min
  Kp at 30 min: 1.16
[2]; brain, po 25 mg/kg, 60 min
  Kp at 60 min: 1.22
[2]; fexinidazole 25 mg/kg po, 15 min
  Brain concentration: 1136 ± 54.1 ng/g
[2]; [11]
  Brain concentration: 800 ± 92.6 ng/g
[2]; [12]
  Brain concentration: 763 ± 90.7 ng/g

## Cn1c([N+](=O)[O-])cnc1COc1ccc([S+](C)[O-])cc1 (centres unmarked) [Fexinidazole sulfoxide]
[1]; 30 min
  % of total drug related material: 96%
[1]; 120 min
  % of total drug related material: 95%
[1]; t=0
  % of total drug related material: 17%
Lipophilicity (logD)
  logD: 0.52
[2]; [3]
  concentration at 5 min: 39.9 ng/mL
[2]; [4]
  concentration at 30 min: 57.6 ng/mL
[2]; [5]
  concentration at 60 min: 1620 ng/mL
[2]; [6]
  concentration at 5 min: 120 ng/g
[2]; [7]
  concentration at 30 min: 173 ng/g
[2]; [8]
  concentration at 30 min: 3310 ng/g
[2]; [9]
  concentration at 30 min: 1100 ng/mL
[2]; [10]
  concentration at 60 min: 4870 ng/g
[2]; brain, iv 1 mg/kg, 5 min
  Kp at 5 min: 0.045
[2]; brain, iv 1 mg/kg, 30 min
  Kp at 30 min: 0.064
[2]; brain, po 25 mg/kg, 30 min
  Kp at 30 min: 0.078
[2]; brain, po 25 mg/kg, 60 min
  Kp at 60 min: 0.12
[2]; [11]
  Brain concentration: 3315 ± 1611 ng/g
[2]; [12]
  Brain concentration: 4873 ± 2335 ng/g

## Cn1c([N+](=O)[O-])cnc1COc1ccc(S(C)(=O)=O)cc1 [Fexinidazole sulfone]
[1]; 30 min
  % of total drug related material: 2%
[1]; 120 min
  % of total drug related material: 4%
Lipophilicity (logD)
  logD: 0.74
[2]; [5]
  concentration at 60 min: 394 ng/mL
[2]; [8]
  concentration at 30 min: 468 ng/g
[2]; [9]
  concentration at 30 min: 156 ng/mL
[2]; [10]
  concentration at 60 min: 1180 ng/g
[2]; brain, iv 1 mg/kg, 5 min
  Kp at 5 min: 0
[2]; brain, iv 1 mg/kg, 30 min
  Kp at 30 min: 0
[2]; brain, po 25 mg/kg, 30 min
  Kp at 30 min: 0.05
[2]; brain, po 25 mg/kg, 60 min
  Kp at 60 min: 0.06
[2]; fexinidazole 1 mg/kg iv, 5 min
  Brain homogenate concentration: BLQ
[2]; fexinidazole 1 mg/kg iv, 30 min
  Brain homogenate concentration: BLQ
[2]; [11]
  Brain concentration: 469 ± 222 ng/g
[2]; [12]
  Brain concentration: 1183 ± 322 ng/g
